# Reference: patent US9487513B2, “Substituted pyrazolo[1,5-A]pyridines, their preparation and use as medicaments” (LABORATORIOS DEL DR. ESTEVE S.A., priority 2012, dated 2016)
# pKi: −log10 of the molar value. Where a name gives a salt, the structure may show the parent alone.
# Target: T1, σ1-receptor (Cavia porcellus, UniProt Q60492)
# T1 construct: Guinea pig brains were homogenized in 10 vols; (w/v) of Tris-HCl 50 mM 0.32 M sucrose; from tissue; host or cells: guinea pig brain membranes
# Assay: σ1-receptor binding assay, [3H]-(+)-pentazocine, guinea pig brain membranes
# Details: radioligand [3H]-(+)-pentazocine at 5.0 nM; guinea pig brain membrane; 150 min at 37° C.; nonspecific binding with 1 μM haloperidol
# Protocol: Brain membrane preparation and binding assays for the σ1-receptor were performed as described (DeHaven-Hudkins, D. L., L. C. Fleissner, and F. Y. Ford-Rice, 1992, Characterization of the binding of [^3H](+)pentazocine to σ recognition sites in guinea pig brain, Eur. J. Pharmacol. 227, 371-378) with some modifications. Guinea pig brains were homogenized in 10 vols. (w/v) of Tris-HCl 50 mM 0.32 M sucrose, pH 7.4, with a Kinematica Polytron PT 3000 at 15000 r.p.m. for 30 s. The homogenate was centrifuged at 1000 g for 10 min at 4° C. and the supernatants collected and centrifuged again at 48000 g for 15 min at 4° C. The pellet was resuspended in 10 volumes of Tris-HCl buffer (50 mM, pH 7.4), incubated at 37° C. for 30 min, and centrifuged at 48000 g for 20 min at 4° C. Following this, the pellet was re-suspended in fresh Tris-HCl buffer (50 mM, pH 7.4) and stored on ice until use.
# The radioligand used was [^3H]-(+)-pentazocine at 5.0 nM and the final volume was 200 μl. The incubation was initiated with the addition of 100 μl of membrane at a final tissue concentration of approximately 5 mg tissue net weight/mL and the incubation time was 150 m. at 37° C. After incubation, the membranes were collected onto pretreated glass fiber filterplate (MultiScreen-FC, Millipore), with polyethylenimine 0.1%. The filters were washed two times with 200 μl of washing buffer (50 mM Tris Cl, pH=7.4) and then 25 μl of Ecoscint H liquid scintillation cocktail were added. Microplates were allowed to set for several hours and then quantified by liquid scintillation spectrophotometry (1450 Microbeta, Wallac). Nonspecific binding was determined with 1 μM haloperidol.
# T1 sequence (Q60492 whole entry): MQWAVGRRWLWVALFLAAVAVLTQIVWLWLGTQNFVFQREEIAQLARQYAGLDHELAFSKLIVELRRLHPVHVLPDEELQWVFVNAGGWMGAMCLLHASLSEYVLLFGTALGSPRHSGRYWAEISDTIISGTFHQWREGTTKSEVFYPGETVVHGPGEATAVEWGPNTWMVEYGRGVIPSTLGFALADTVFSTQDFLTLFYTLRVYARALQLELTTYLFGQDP
row,Structure (SMILES),pKi
1,"c1c(OCCCN2CCN(C3CCCCC3)CC2)nn2c1CCCC2 [Example 100, 2-(3-(4-cyclohexylpiperazin-1-yl)propoxy)-4,5,6,7-tetrahydropyrazolo[1,5-a]pyridine maleate]",7.43
2,"CC(C)(C)C1CCN(CCCCOc2nn3c(c2Cl)CCCC3)CC1 [Example 105, 2-(4-(4-tert-butylpiperidin-1-yl)butoxy)-3-chloro-4,5,6,7-tetrahydropyrazolo[1,5-a]pyridine maleate]",7.88
3,"Clc1c(OCCCCN2CCN(C3CCCCC3)CC2)nn2c1CCCC2 [Example 108, 3-chloro-2-(4-(4-cyclohexylpiperazin-1-yl)butoxy)-4,5,6,7-tetrahydropyrazolo[1,5-a]pyridine]",7.94

# The remaining lines, values ahead:
row,pKi,Structure (SMILES)
1,7.32,"c1c(OCCCN2CCCOCC2)nn2c1CCCC2 [Example 101, 4-(3-(4,5,6,7-tetrahydropyrazolo[1,5-a]pyridin-2-yloxy)propyl)-1,4-oxazepane]"
2,8.24,"CN(CCOc1nn2ccccc2c1I)Cc1ccccc1 [Example 106, N-benzyl-2-(3-iodopyrazolo[1,5-a]pyridin-2-yloxy)-N-methylethanamine oxalate]"
3,8.53,"CN(CCOc1nn2c(c1I)CCCC2)Cc1ccccc1 [Example 107, N-benzyl-2-(3-iodo-4,5,6,7-tetrahydropyrazolo[1,5-a]pyridin-2-yloxy)-N-methylethanamine oxalate]"
